Data: PubChem BioAssay AID1918945 (Molecular Pharmacology Branch, DTP, NCI, 2023)

Tested on: 883617-216-R-J1-PDC complex spheroid viability
Experiment: Anticancer human tumor 883617-216-R-J1-PDC patient-derived bladder carcinoma cell line growth inhibition
Details: for IC50: curve of first compound; for viability, T/C: stronger effect = lower value
Outline: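 Multicellular complex spheroids of tumor cells with human endothelial cells (HUVEC) and mesenchymal stem cells; the LSD1 inhibitor iadademstat was combined with standard-of-care or investigational agents. Top concentration at or near clinical Cmax, half-log dilutions; final DMSO ≤0.25%.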
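Note: exposure lasted seven days after three days of spheroid growth.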
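Throughout, for viability, T/C: 100% = DMSO vehicle control luminescence.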

CC[C@@]1(O)C(=O)OCc2c1cc1n(c2=O)Cc2cc3c(CN(C)C)c(O)ccc3nc2-1 + NC1CCC(NC2CC2c2ccccc2)CC1
IC50 (second compound 0.1 µM): 4.71 nM
IC50 (second compound 0.316 µM): 5.7 nM
IC50 (second compound 1 µM): 6.31 nM
IC50 (second compound 3.16 µM): 6.47 nM
IC50 (second compound 10 µM): 7.25 nM
viability, T/C (second compound 0.1 µM, first compound 0.000316 µM): 94.9%
viability, T/C (second compound 0.1 µM, first compound 0.001 µM): 85.8%
viability, T/C (second compound 0.1 µM, first compound 0.00316 µM): 55.2%
viability, T/C (second compound 0.1 µM, first compound 0.01 µM): 38.9%
viability, T/C (second compound 0.1 µM, first compound 0.0316 µM): 33.8%
viability, T/C (second compound 0.1 µM, first compound 0.1 µM): 28.5%
viability, T/C (second compound 0.316 µM, first compound 0.000316 µM): 103%
viability, T/C (second compound 0.316 µM, first compound 0.001 µM): 104%
viability, T/C (second compound 0.316 µM, first compound 0.00316 µM): 62.5%
viability, T/C (second compound 0.316 µM, first compound 0.01 µM): 42.6%
viability, T/C (second compound 0.316 µM, first compound 0.0316 µM): 30.9%
viability, T/C (second compound 0.316 µM, first compound 0.1 µM): 32.4%
viability, T/C (second compound 1 µM, first compound 0.000316 µM): 93.7%
viability, T/C (second compound 1 µM, first compound 0.001 µM): 87.2%
viability, T/C (second compound 1 µM, first compound 0.00316 µM): 57.4%
viability, T/C (second compound 1 µM, first compound 0.01 µM): 44.2%
viability, T/C (second compound 1 µM, first compound 0.0316 µM): 36.2%
viability, T/C (second compound 1 µM, first compound 0.1 µM): 26.9%
viability, T/C (second compound 3.16 µM, first compound 0.000316 µM): 95.8%
viability, T/C (second compound 3.16 µM, first compound 0.001 µM): 86.1%
viability, T/C (second compound 3.16 µM, first compound 0.00316 µM): 61.3%
viability, T/C (second compound 3.16 µM, first compound 0.01 µM): 42.5%
viability, T/C (second compound 3.16 µM, first compound 0.0316 µM): 35.4%
viability, T/C (second compound 3.16 µM, first compound 0.1 µM): 28.8%
viability, T/C (second compound 10 µM, first compound 0.000316 µM): 99.3%
viability, T/C (second compound 10 µM, first compound 0.001 µM): 98.2%
viability, T/C (second compound 10 µM, first compound 0.00316 µM): 74.7%
viability, T/C (second compound 10 µM, first compound 0.01 µM): 40%
viability, T/C (second compound 10 µM, first compound 0.0316 µM): 36.7%
viability, T/C (second compound 10 µM, first compound 0.1 µM): 28.6%

CCc1c2c(nc3ccc(O)cc13)-c1cc3c(c(=O)n1C2)COC(=O)[C@]3(O)CC + NC1CCC(NC2CC2c2ccccc2)CC1
IC50 (second compound 0.1 µM): < 0.949 nM
IC50 (second compound 0.316 µM): < 0.949 nM
IC50 (second compound 1 µM): < 0.949 nM
IC50 (second compound 3.16 µM): < 0.949 nM
IC50 (second compound 10 µM): < 0.949 nM
viability, T/C (second compound 0.1 µM, first compound 0.000949 µM): 34.6%
viability, T/C (second compound 0.1 µM, first compound 0.003 µM): 27.8%
viability, T/C (second compound 0.1 µM, first compound 0.00949 µM): 24.9%
viability, T/C (second compound 0.1 µM, first compound 0.03 µM): 24.2%
viability, T/C (second compound 0.1 µM, first compound 0.0949 µM): 5.01%
viability, T/C (second compound 0.1 µM, first compound 0.3 µM): 2.12%
viability, T/C (second compound 0.316 µM, first compound 0.000949 µM): 35.5%
viability, T/C (second compound 0.316 µM, first compound 0.003 µM): 28.4%
viability, T/C (second compound 0.316 µM, first compound 0.00949 µM): 25%
viability, T/C (second compound 0.316 µM, first compound 0.03 µM): 22.8%
viability, T/C (second compound 0.316 µM, first compound 0.0949 µM): 3.48%
viability, T/C (second compound 0.316 µM, first compound 0.3 µM): 0.41%
viability, T/C (second compound 1 µM, first compound 0.000949 µM): 36.2%
viability, T/C (second compound 1 µM, first compound 0.003 µM): 24.4%
viability, T/C (second compound 1 µM, first compound 0.00949 µM): 26.4%
viability, T/C (second compound 1 µM, first compound 0.03 µM): 23.7%
viability, T/C (second compound 1 µM, first compound 0.0949 µM): 4.59%
viability, T/C (second compound 1 µM, first compound 0.3 µM): 0.62%
viability, T/C (second compound 3.16 µM, first compound 0.000949 µM): 31.6%
viability, T/C (second compound 3.16 µM, first compound 0.003 µM): 25.7%
viability, T/C (second compound 3.16 µM, first compound 0.00949 µM): 26.7%
viability, T/C (second compound 3.16 µM, first compound 0.03 µM): 23.6%
viability, T/C (second compound 3.16 µM, first compound 0.0949 µM): 5.29%
viability, T/C (second compound 3.16 µM, first compound 0.3 µM): 1.43%
viability, T/C (second compound 10 µM, first compound 0.000949 µM): 30.6%
viability, T/C (second compound 10 µM, first compound 0.003 µM): 25.7%
viability, T/C (second compound 10 µM, first compound 0.00949 µM): 25.2%
viability, T/C (second compound 10 µM, first compound 0.03 µM): 25.6%
viability, T/C (second compound 10 µM, first compound 0.0949 µM): 3.82%
viability, T/C (second compound 10 µM, first compound 0.3 µM): 0.29%
